Reference: US20110300073A1, “18F-LABELLED THREE-AND FOUR-CARBON ACIDS FOR PET IMAGING” (priority 2008, published 2011)

Columns and labels:
CWR22RV1 xenografts = assay: single isotope [18F] biodistribution study in mice with CWR22rv1 tumors; format: in vivo; details: for tumor to organ ratio, blood / tumor to organ ratio, bone / tumor to organ ratio, heart / tumor to organ ratio, kidneys / tumor to organ ratio, large intestine / tumor to organ ratio, liver / tumor to organ ratio, lungs / tumor to organ ratio, muscle / tumor to organ ratio, small intestine / tumor to organ ratio, spine / tumor to organ ratio, spleen / tumor to organ ratio, stomach: tail vein, nude mice with CWR22RV1 xenografts
Procedure: (§1) All animal experiments were done in accordance with protocols approved by the Institutional Animal Care and Use Committee of Memorial Sloan-Kettering Cancer Center and followed National Institutes of Health guidelines for animal welfare. Subcutaneous tumors were produced in nude mice (20-25 g; Charles River Laboratories) by subcutaneous injection of 5×10^6 tumor cells in 200 μl consisting of 100 μl of cell culture medium and 100 μl of Matrigel under 2% Isofluorane anesthesia on the right forelimb of mice.
For single isotope ([^18F]) biodistribution studies, mice with CWR22rv1 tumors were injected intravenously in the tail vein with 3.7-5.5 MBq (100-150 μCi) of [^18F]-FPA in 200 μL of saline. Radioactivity in the syringe before and after administration was measured in an energy-calibrated dose calibrator (CRC-15R; Capintec) and exact quantity received by each animal was determined. The animals were euthanized at different time points and then the organs were harvested. [^18F] radioactivity was measured in a calibrated gamma counter (Perkin Elmer 1480 Wizard 3 Auto Gamma counter, Waltham, Mass.) using 400-600 keV energy window and decay correction. The counts were converted into activity and % ID/g was calculated by dividing with decay corrected injected activity and weight of the organ. […] In addition to tumor, there is high uptake in blood and heart. The tumor to organ ratio of 2-[^18F]-FPA at 1, 2, 3 and 4 hour post injection is: […]

[1] = tested on: prostate cancer CWR22RV1 xenografts; assay: MicroPET imaging of nude mice with CWR22RV1 xenografts; format: in vivo
Procedure: Small animal PET imaging was performed on MicroPET, to evaluate the potential of 2-[^18F]-fluoropropanoic acid (2-[^18F]-FPA), and 2-[^18F]-fluorobutanoic acid (2-[^18F]-FBA) as tumor imaging agents in mice with prostate cancer CWR22RV1 xenografts. […] In addition to uptake in the tumor, there is high uptake in heart and brain.
The mice were imaged using MicroPET first with [^18F]-FDG after 4 hour fasting 1 hour post injection. The activity was allowed to decay for 20 hrs and the same mice were imaged with 2-[^18F]-FPA 1 hour post injection. In case of 2-[^18F]-FPA, the animals were not fasted. […] 2-[^18F]-FPA has high uptake in brain like [^18F]
as §1
Imaging was performed by use of a dedicated small-animal PET scanner (Focus 120 microPET; Siemens Medical Solutions USA, Inc.). Mice were maintained under 2% isoflurane anesthesia in oxygen at 2 L/min during the entire scanning period. Imaging was performed one hour post administration of 11.1 MBq (300 μCi) of either 2-[^18F]-FPA or [^18F]-FDG via the lateral tail vein. An energy window of 350-700 keV and a coincidence timing window of 6 ns were used. The image data were corrected for non-uniformity of the scanner response, dead time count losses, and physical decay to the time of injection. No correction was applied for attenuation, scatter, or partial-volume averaging. The measured reconstructed spatial resolution of the Focus 120 scanner is ˜1.6 mm full width at half maximum at the center of the field of view.

rats [2] = details: Dreisbach's Handbook of Poisoning; cited from earlier work
rats [3] = assay: toxicity in rats (oral LD50 / single dose); details: given at 212 mg/kg to rats
[4] = summary over 1-4 hour post injection

SMILES: CC([18F])C(=O)O (centres unmarked) [2-[^18F]-FPA, 2-[^18F]-fluoropropanoic acid]
- biodistribution during the time of study (CWR22RV1 xenografts; 1, 2, 3 and 4 hour post administration via tail vein): remains similar
- accumulation of tracer in tumor (CWR22RV1 xenografts; 1-4 hour post administration): considerable accumulation
- uptake in blood (CWR22RV1 xenografts; 1-4 hour post administration): high uptake
- uptake in heart (biodistribution) (CWR22RV1 xenografts; 1-4 hour post administration): high uptake
- tumor to organ ratio, blood (CWR22RV1 xenografts; 1 hour post injection): 1.05
- tumor to organ ratio, bone (CWR22RV1 xenografts; 1 hour post injection): 2.79
- tumor to organ ratio, heart (CWR22RV1 xenografts; 1 hour post injection): 0.90
- tumor to organ ratio, kidneys (CWR22RV1 xenografts; 1 hour post injection): 1.43
- tumor to organ ratio, large intestine (CWR22RV1 xenografts; 1 hour post injection): 1.39
- tumor to organ ratio, liver (CWR22RV1 xenografts; 1 hour post injection): 1.35
- tumor to organ ratio, lungs (CWR22RV1 xenografts; 1 hour post injection): 1.22
- tumor to organ ratio, muscle (CWR22RV1 xenografts; 1 hour post injection): 1.79
- tumor to organ ratio, small intestine (CWR22RV1 xenografts; 1 hour post injection): 1.26
- tumor to organ ratio, spine (CWR22RV1 xenografts; 1 hour post injection): 1.76
- tumor to organ ratio, spleen (CWR22RV1 xenografts; 1 hour post injection): 1.40
- tumor to organ ratio, stomach (CWR22RV1 xenografts; 1 hour post injection): 2.50
- tumor to organ ratio, blood (CWR22RV1 xenografts; 2 hours post injection): 1.03
- tumor to organ ratio, bone (CWR22RV1 xenografts; 2 hours post injection): 2.14
- tumor to organ ratio, heart (CWR22RV1 xenografts; 2 hours post injection): 0.94
- tumor to organ ratio, kidneys (CWR22RV1 xenografts; 2 hours post injection): 1.57
- tumor to organ ratio, large intestine (CWR22RV1 xenografts; 2 hours post injection): 1.49
- tumor to organ ratio, liver (CWR22RV1 xenografts; 2 hours post injection): 1.24
- tumor to organ ratio, lungs (CWR22RV1 xenografts; 2 hours post injection): 1.17
- tumor to organ ratio, muscle (CWR22RV1 xenografts; 2 hours post injection): 1.79
- tumor to organ ratio, small intestine (CWR22RV1 xenografts; 2 hours post injection): 1.57
- tumor to organ ratio, spine (CWR22RV1 xenografts; 2 hours post injection): 1.61
- tumor to organ ratio, spleen (CWR22RV1 xenografts; 2 hours post injection): 1.56
- tumor to organ ratio, stomach (CWR22RV1 xenografts; 2 hours post injection): 3.60
- tumor to organ ratio, blood (CWR22RV1 xenografts; 3 hours post injection): 1.04
- tumor to organ ratio, bone (CWR22RV1 xenografts; 3 hours post injection): 2.58
- tumor to organ ratio, heart (CWR22RV1 xenografts; 3 hours post injection): 1.07
- tumor to organ ratio, kidneys (CWR22RV1 xenografts; 3 hours post injection): 1.60
- tumor to organ ratio, large intestine (CWR22RV1 xenografts; 3 hours post injection): 1.51
- tumor to organ ratio, liver (CWR22RV1 xenografts; 3 hours post injection): 1.33
- tumor to organ ratio, lungs (CWR22RV1 xenografts; 3 hours post injection): 1.30
- tumor to organ ratio, muscle (CWR22RV1 xenografts; 3 hours post injection): 1.76
- tumor to organ ratio, small intestine (CWR22RV1 xenografts; 3 hours post injection): 1.58
- tumor to organ ratio, spine (CWR22RV1 xenografts; 3 hours post injection): 1.57
- tumor to organ ratio, spleen (CWR22RV1 xenografts; 3 hours post injection): 1.62
- tumor to organ ratio, stomach (CWR22RV1 xenografts; 3 hours post injection): 4.48
- tumor to organ ratio, blood (CWR22RV1 xenografts; 4 hours post injection): 1.06
- tumor to organ ratio, bone (CWR22RV1 xenografts; 4 hours post injection): 1.90
- tumor to organ ratio, heart (CWR22RV1 xenografts; 4 hours post injection): 1.00
- tumor to organ ratio, kidneys (CWR22RV1 xenografts; 4 hours post injection): 1.29
- tumor to organ ratio, large intestine (CWR22RV1 xenografts; 4 hours post injection): 1.87
- tumor to organ ratio, liver (CWR22RV1 xenografts; 4 hours post injection): 1.41
- tumor to organ ratio, lungs (CWR22RV1 xenografts; 4 hours post injection): 1.32
- tumor to organ ratio, muscle (CWR22RV1 xenografts; 4 hours post injection): 1.85
- tumor to organ ratio, small intestine (CWR22RV1 xenografts; 4 hours post injection): 1.44
- tumor to organ ratio, spine (CWR22RV1 xenografts; 4 hours post injection): 1.44
- tumor to organ ratio, spleen (CWR22RV1 xenografts; 4 hours post injection): 1.56
- tumor to organ ratio, stomach (CWR22RV1 xenografts; 4 hours post injection): 3.54
- tumor to organ ratio, heart (overall) (CWR22RV1 xenografts; [4]): around 0.95
- tumor to organ ratio, most of the organs except heart (CWR22RV1 xenografts; [4]): greater than 1
- uptake in brain (MicroPET) ([1]; 1 hour post injection): high uptake
- accumulation in the kidneys of mice, unlike [18F]-FDG ([1]; 1 hour post injection, FIG. 1): much lower accumulation
- tumor visualization as compared to [18F]-FDG ([1]; 1 hour post injection, same mice, FIG. 1): much more clearly
- uptake in heart (MicroPET) ([1]; one hour post administration): high uptake
- tumor visualization in MicroPET image ([1]; one hour post administration, transaxial and coronal slices, 5 minute acquisition time): easily visualized

SMILES: O=C(O)CF [2-fluoroacetic acid]
- oral LD50 in rats (rats [2]): 0.22 mg/kg

SMILES: CC(F)C(=O)O (centres unmarked) [2-fluoropropanoic acid]
- toxicity in rats (rats [3]): no toxicity was observed

SMILES: OC[C@H]1OC(O)[C@H]([18F])[C@@H](O)[C@@H]1O (some centres unmarked) [[^18F]-FDG, [^18F]-fluorodeoxyglucose, reference compound]
- uptake in brain (MicroPET) ([1]; 1 hour post injection): high uptake
